From ChEMBL document CHEMBL1145960, “Substituted pyrazolopyridopyridazines as orally bioavailable potent and selective PDE5 inhibitors: potential agents for treatment of erectile dysfunction” (J Med Chem, 2003) come the findings set out here.

What is called ED50 is the midpoint of the dose-response relation. Higher therefore signals a need for a large dose. The EC50 is the midpoint of the concentration-response curve. The term bioavailability denotes the share of a dose that reaches the circulation, judged against a reference dose that is usually intravenous. Low values mean little systemic uptake, high ones much systemic uptake. Usually half-life stands for the time needed for the level to fall by half in the phase considered. The low end stands for fast loss, the high end for slow loss. The IC50 is the concentration at which inhibition is half-maximal. Read a high IC50 as lower potency.

The structures appear in SMILES notation. Bounds are passed on as bounds.

A short description of series [1]: Relative inhibition of PDE2 from rat kidney and PDE5 from human platelets.
Series [2] can be described thus: Relative inhibition of PDE1 from bovine heart and PDE5 from human platelets.
The nature of series [3]: Relative inhibition of PDE6 from bovine retina and PDE5 from human platelets.
A short description of series [4]: Relative inhibition of PDE4 from rat kidney and PDE5 from human platelets.
The species entered for series [5] is Oryctolagus cuniculus. The series can be described thus: Increased mean blood pressure in rabbit corpus carvenosum. In kind it is functional.
Series [6] can be described thus: Relaxant effect mediated by PDE5 inhibition in rabbit corpus cavernosum. In kind it is functional, tissue-based, Oryctolagus cuniculus.
Series [7] in a line: Bioavailability in dog (male). It counts as ADME, organism-based, Canis lupus familiaris. The following applies: in vivo.
Series [8] is described as follows: Bioavailability in rat (male). It counts as ADME, organism-based. Conditions: in vivo.
Series [9] is described as follows: Half life of compound was determined in male dogs. Conditions: dog, in vivo. In kind it is ADME, organism-based, Canis lupus familiaris.
In series [10] the target is cGMP-specific 3',5'-cyclic phosphodiesterase (Homo sapiens, UniProt O76074). Description: Inhibition of Phosphodiesterase 5 from human platelets.
A short description of series [11]: Half life of compound was determined in male rats. Conditions: rat, in vivo. It counts as ADME, organism-based.
Series [12] addresses Phosphodiesterase 3 and 5 (PDE3 and PDE5) (Homo sapiens) (UniProt O76074+Q14432+Q13370). The series can be described thus: Relative inhibition of PDE3 and PDE5 from human platelets.

`CCn1ncc2c(NCc3ccc(OC)c(Cl)c3)c(C(=O)NCc3ccncc3)cnc21`: the Ratio turned out to be 9200 in series [1], 6400 in [2], 47 in [3] and 600 in series [4].

In turn, `CCCc1nn(C)c2c(=O)[nH]c(-c3cc(S(=O)(=O)N4CCN(C)CC4)ccc3OCC)nc12` returned an ED50 in series [5] of 0.11 µmol/kg. In series [6], this compound showed an EC50 of 19 nM.

In the case of `CCn1ncc2c3c(NCc4ccc(OC)c(Cl)c4)nnc(-n4cnc(C(=O)NC)c4)c3cnc21`, the Ratio in series [1] was > 10000; in series [2], > 10000; in series [3] it was 150; in series [4], > 10000. Further, the bioavailability in [7] is 42%; in [8], 29%. Also, the half-life in [9] was 2 h; in series [11] it was 1.2 h. The compound also gave a 50% inhibitory concentration (IC50) in [10] of 0.3 nM. Moreover, the 50% effect level in [5] (ED50) was put at a dose of 0.1 µmol/kg. Besides, the EC50 in series [6] turned out to be 13 nM.

Take `CCn1ncc2c3c(NCc4ccc(OC)c(Cl)c4)nnc(N4CCC(C(=O)O)CC4)c3cnc21`: the Ratio is > 10000 in series [1]; > 10000 in series [2]; 30 in series [3]; 7500 in series [4]; > 10000 in series [12]. Moreover, inhibition in series [10] was half-maximal at 0.03 nM (IC50).

With `CCn1ncc2c3c(NCc4ccc(OC)c(Cl)c4)nnc(NCc4ccncc4)c3cnc21`, the Ratio in series [1] was > 10000; in [2], > 10000; in series [3], 210; in [4], 4000; in [12] it was > 10000. The compound further yielded an IC50 in series [10] of 0.1 nM.

As for `CCn1ncc2c3c(NCc4ccc(OC)c(Cl)c4)nnc(N4CCC(O)CC4)c3cnc21`, the Ratio in series [1] was determined as 4000; in [2], 5700; in series [3] it was 80; in series [4] it was 300; in [12], 7500.
